pEC50: −log10 of the molar value. Like-named read-outs stand apart in the source and are kept apart here.
Legend:
[1] = target: T1, rhinovirus 3C protease from HRV serotype-14 (Human rhinovirus 14, UniProt P03303); experiment: Inhibition of rhinovirus 3C protease activity (FRET assay), HRV-14; format: biochemical; conditions: read-out: Protease Inhibition kobs/I
T1 construct: Recombinant rhinovirus 3C proteases; made in house
Description: Stock solutions (50 mM, in DMSO) of various compounds were prepared; dilutions were in the same solvent. Recombinant rhinovirus 3C proteases (see Birch et al., “Purification of recombinant human rhinovirus 14 3C protease expressed in Escherichia coli,” Protein Expr. Pur. 1995, 6(5), 609–618) from serotypes 14, 16, and 2 were prepared by the following standard chromatographic procedures: (1) ion exchange using Q Sepharose Fast Flow from Pharmacia; (2) affinity chromatography using Affi-Gel Blue from Biorad; and (3) sizing using Sephadex G-100 from Pharmacia. Each assay sample contained 2% DMSO, 50 mM tris pH 7.6, 1 mM EDTA, a test compound at the indicated concentration, approximately 1 μM substrate, and 50–100 nM protease. The kobs/I values were obtained from reactions initiated by addition of enzyme rather than substrate. RVP activity was measured in the fluorescence resonance energy transfer assay. The substrate was (N-terminal) DABCYL-(Gly-Arg-Ala-Val-Phe-Gln-Gly-Pro-Val-Gly)-EDANS. In the uncleaved peptide, the EDANS fluorescence was quenched by the proximal DABCYL group. When the peptide was cleaved, the quenching was relieved, and activity was measured as an increase in fluorescence signal. In the Table, unless otherwise indicated, all data are for rhinovirus 3C protease from HRV serotype-14 (produced from the infectious cDNA clone constructed by Dr. Robert Rueckert, Institute for Molecular Virology, University of Wisconsin, Madison, Wis.). The data in the column designated kobs/[I] were measured from progress curves in enzyme start experiments.

HRV-14 = experiment: Antirhinoviral H1-HeLa cell culture assay (cell protection, XTT), HRV-14; format: cell-based, human rhinovirus; conditions: Rhinovirus B, read-out: Cell Protection EC50
Description: (§1) In this cell protection assay, the ability of compounds to protect cells against HRV infection was measured by the XTT dye reduction method, which is described in Weislow et al., J. Natl. Cancer Inst. 1989, vol. 81, 577–586.
(§2) H1-HeLa cells were infected with HRV-14 at a multiplicity of infection (m.o.i.) of 0.13 (virus particles/cell) or mock-infected with medium only. Infected or mock-infected cells were resuspended at 8×10^5 cells per mL, and incubated with appropriate concentrations of the compounds to be tested. Two days later, XTT/PMS was added to test plates and the amount of formazan produced was quantified spectrophotometrically at 450/650 nm. The EC50 value was calculated as the concentration of compound that increased the percentage of formazan production in compound-treated, virus-infected cells to 50% of that produced by compound-free, mock-infected cells. The 50% cytotoxic dose (CC50) was calculated as the concentration of compound that decreased the percentage of formazan produced in compound-treated, mock-infected cells to 50% of that produced by compound-free, mock-infected cells.
(§3) All strains of human rhinovirus (HRV) for use in this assay were purchased from American Type Culture Collection (ATCC), except for HRV serotype-14 (produced from the infectious cDNA clone constructed by Dr. Robert Rueckert, Institute for Molecular Virology, University of Wisconsin, Madison, Wis.). HRV stocks were propagated and viral assays were performed in H1-HeLa cells (ATCC). Cells were grown in minimal essential medium with 10% fetal bovine serum, available from Life Technologies (Gaithersburg, Md.).
The compounds were tested against control compounds WIN 51711, WIN 52084, and WIN 54954 (obtained from Sterling-Winthrop Pharmaceuticals), Pirodavir (obtained from Janssen Pharmaceuticals), and Pleconaril (prepared according to the method described in Diana et al., J. Med. Chem 1995, vol. 38, 1355). Antiviral data obtained for the test compounds are shown in the Table, where all data are for HRV serotype-14 unless otherwise noted in parentheses.

[2] = Cytotoxicity in mock-infected H1-HeLa cells (XTT); format: cell-based; conditions: human, two days, read-out: Toxicity CC50
Description: as §1, §2, §3

[3] = HRV-14 3C protease, progress curves, enzyme start
[4] = HRV14, 48 h, HRV-14, H1-HeLa cells, XTT, two days

T1 sequence (P03303 1538-1719): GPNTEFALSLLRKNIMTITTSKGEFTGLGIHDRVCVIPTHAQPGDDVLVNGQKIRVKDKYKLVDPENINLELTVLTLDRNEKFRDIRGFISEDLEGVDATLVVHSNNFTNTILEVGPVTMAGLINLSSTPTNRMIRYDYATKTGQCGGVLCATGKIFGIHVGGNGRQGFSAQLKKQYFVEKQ

Row | SMILES | kinact/KI [1, 3] | pEC50 (HRV-14; [4]) | kinact/KI [1] | pEC50 (HRV-14; HRV14, H1-HeLa, 48 h) | CC50 at 2 days [2]
1 | CCOC(=O)/C=C/[C@H](C[C@@H]1CCNC1=O)NC(=O)/C=C/c1cccc(Br)c1 [Compound 3, 4S-[3-(3-bromo-phenyl)-acryloylamino]-5-(2-oxo-pyrrolidin-3S-yl)-pent-2-enoic acid ethyl ester] |  |  | 2560 M⁻¹ s⁻¹ | 5.85 | > 10 µM
2 | CCOC(=O)/C=C/[C@H](C[C@@H]1CCNC1=O)NC(=O)/C=C/c1ccc2c(c1)OCO2 [Compound 9, 4S-(3-benzo[1,3]dioxol-5-yl-acryloylamino)-5-(2-oxo-pyrrolidin-3S-yl)-pent-2-enoic acid ethyl ester] |  |  | 1960 M⁻¹ s⁻¹ | 5.74 | > 10 µM
3 | CCOC(=O)/C=C/[C@H](C[C@@H]1CCNC1=O)NC(=O)Nc1cccc2ccccc12 [Compound 56, 4S-(3-naphthalen-1-yl)-5-(2-oxo-pyrrolidin-3S-yl)-pent-2-enoic acid ethyl ester] |  |  | 117 M⁻¹ s⁻¹ | < 5.00 | > 10 µM
4 | CCOC(=O)/C=C/[C@H](C[C@@H]1CCNC1=O)NC(=O)/C=C/c1ccc([N+](=O)[O-])cc1 [Compound 15, 4S-[3-(4-nitro-phenyl)-acryloylamino]-5-(2-oxo-pyrrolidin-3S-yl)-pent-2-enoic acid ethyl ester] |  |  | 2020 M⁻¹ s⁻¹ | 5.82 | > 10 µM
5 | CCOC(=O)/C=C/[C@H](C[C@@H]1CCNC1=O)NC(=O)c1cc2cc(OC)ccc2[nH]1 [Compound 41, 4S-[(5-Methoxy-1H-indole-2-carbonyl)-amino]-5-(2-oxo-pyrrolidin-3S-yl)-pent-2-enoic acid ethyl ester] |  |  | 2190 M⁻¹ s⁻¹ | 5.63 | > 100 µM
6 | CCOC(=O)/C=C/[C@H](C[C@@H]1CCNC1=O)NC(=O)/C=C/c1ccc(F)c(Br)c1 [Compound 48, 4S-[3-(3-Bromo-4-fluoro-phenyl)-acryloylamino]-5-(2-oxo-pyrrolidin-3S-yl)-pent-2-enoic acid ethyl ester] |  |  | 2860 M⁻¹ s⁻¹ | 6.20 | > 100 µM
7 | CCOC(=O)/C=C/[C@H](C[C@@H]1CCNC1=O)NC(=O)c1ccc2cc(C)ccc2c1 [Compound 51, 4S-[(6-Methyl-naphthalene-2-carbonyl)-amino]-5-(2-oxo-pyrrolidin-3S-yl)-pent-2-enoic acid ethyl ester] |  |  | 5020 M⁻¹ s⁻¹ | 6.06 | > 100 µM
8 | CCOC(=O)/C=C/[C@H](C[C@@H]1CCNC1=O)NC(=O)C1=Cc2ccccc2OC1 [Compound 67, 4S-[(2H-chromene-3-carbonyl)-amino]-5-(2-oxopyrrolidin-3S-yl)-pent-2-enoic acid ethyl ester] |  |  | 886 M⁻¹ s⁻¹ | 5.92 | > 100 µM
9 | CCOC(=O)/C=C/[C@H](C[C@@H]1CCNC1=O)NC(=O)c1cc2cc(OC)c(OC)cc2n1C [Compound 19, 4S-[(5,6-dimethoxy-1-methyl-indole-2-carbonyl)-amino]-5-(2-oxo-pyrrolidin-3S-yl)-pent-2-enoic acid ethyl ester] |  |  | 1230 M⁻¹ s⁻¹ | 5.87 | > 10 µM
10 | CCOC(=O)/C=C/[C@H](C[C@@H]1CCNC1=O)NC(=O)/C=C/c1ccc(C)c(Br)c1 [Compound 23, 4S-[3-(3-bromo-4-methyl-phenyl)-acryloylamino]-5-(2-oxo-pyrrolidin-3S-yl)-pent-2-enoic acid ethyl ester] |  |  | 4080 M⁻¹ s⁻¹ | 5.89 | > 10 µM
11 | CCOC(=O)/C=C/[C@H](C[C@@H]1CCNC1=O)NC(=O)N[C@@H](CC(C)C)C(=O)OCC [Compound 24, 4S-[3-(1S-ethoxycarbonyl-3-methyl-butyl)-ureido]-5-(2-oxo-pyrrolidin-3S-yl)-pent-2-enoic acid ethyl ester] |  |  | 1050 M⁻¹ s⁻¹ | 5.34 | > 10 µM
12 | CCOC(=O)/C=C/[C@H](C[C@@H]1CCNC1=O)NC(=O)c1cc2cc(Br)ccc2[nH]1 [Compound 20] |  |  | 1370 M⁻¹ s⁻¹ | 5.36 | > 10 µM
13 | CCOC(=O)/C=C/[C@H](CCC(N)=O)NC(=O)c1ccc(N(C)C)cc1 [Compound 27] | 45 M⁻¹ s⁻¹ | 5.41 |  |  | > 100 µM
14 | CCOC(=O)/C=C/[C@H](C[C@@H]1CCNC1=O)NC(=O)c1cc2cc(C)ccc2[nH]1 [Compound 43, 4-[(5-Methyl-1H-indole-2-carbonyl)-amino]-5-(2-oxo-pyrrolidin-3-yl)-pent-2-enoic acid ethyl ester] |  |  | 3460 M⁻¹ s⁻¹ | 5.67 | > 100 µM
15 | CCOC(=O)/C=C/[C@H](C[C@H]1CCNC1=O)NC(=O)c1ccc2ccccc2c1 [Compound 2, 4S-[(naphthalene-2-carbonyl)-amino]-5-(2-oxo-pyrrolidin-3-R-yl)-pent-2-enoic acid ethyl ester] | 400 M⁻¹ s⁻¹ |  |  |  | 

More lines, main results first:

Row | kinact/KI [1, 3] | pEC50 (HRV-14; [4]) | SMILES | kinact/KI [1] | pEC50 (HRV-14; HRV14, H1-HeLa, 48 h) | CC50 at 2 days [2]
16 | 62 M⁻¹ s⁻¹ | 4.50 | CCOC(=O)/C=C/[C@H](CCC(N)=O)NC(=O)/C=C/c1ccccc1 [Compound 29, 6-carbamoyl-4S-(3-phenyl-acryloylamino)-hex-2-enoic acid ethyl ester] |  |  | > 100 µM
17 |  | 8.00 | Cc1cc(CCCOc2c(C)cc(-c3noc(C(F)(F)F)n3)cc2C)on1 [Pleconaril, reference compound] |  |  | > 10 µM
18 | 10 M⁻¹ s⁻¹ | < 4.00 | CCOC(=O)/C=C/[C@H](CCC(N)=O)NC(=O)c1ccccc1COC(=O)c1ccccc1 [Compound 36] |  |  | > 100 µM
19 | 71 M⁻¹ s⁻¹ | 6.00 | CCOC(=O)/C=C/[C@H](CCC(N)=O)NC(=O)c1cc2ccccc2[nH]1 [Compound 38, 6-carbamyl-4S-[(1H-indole-2-carbonyl)-amino]-hex-2-enoic acid ethyl ester] |  |  | > 100 µM
20 | 6 M⁻¹ s⁻¹ | < 4.00 | CCOC(=O)/C=C/[C@H](CCC(N)=O)NC(=O)c1ccccc1CCc1ccccc1 [Compound 37, 6-carbamoyl-4S-(2-phenethyl-benzoylamino)-hex-2-enoic acid ethyl ester] |  |  | > 100 µM
21 | 10 M⁻¹ s⁻¹ | < 4.00 | CCOC(=O)/C=C/[C@H](CCC(N)=O)NC(=O)c1ccccc1 [Compound 34] |  |  | > 100 µM
22 | 64 M⁻¹ s⁻¹ | 4.85 | CCOC(=O)/C=C/[C@H](CCC(N)=O)NC(=O)c1cnc2ccccc2n1 [Compound 28, 6-carbamoyl-4S-[(quinoxaline-2-carboxyl)-amino]-hex-2-enoic acid ethyl ester] |  |  | > 100 µM
23 |  | 7.52 | CCOC(=O)c1ccc(OCCC2CCN(c3ccc(C)nn3)CC2)cc1 [Pirodavir, reference compound] |  |  | > 10 µM
24 | 345 M⁻¹ s⁻¹ | 5.49 | CCOC(=O)/C=C/[C@H](CCC(N)=O)NC(=O)/C=C/c1cccc(Br)c1 [Compound 30, 4S-[3-(3-bromophenyl)-acryloylamino]-6-carbamoyl-hex-2-enoic acid ethyl ester] |  |  | > 100 µM
25 | 27 M⁻¹ s⁻¹ | 4.90 | CCOC(=O)/C=C/[C@H](CCC(N)=O)NC(=O)c1cc(C(C)(C)C)nn1Cc1ccccc1 [Compound 33, 4S-[(2-benzyl-5-tert-butyl-2H-pyrazole-3-carbonyl)-amino]-6-carbamoyl-hex-2-enoic acid ethyl ester] |  |  | > 100 µM
26 | 185 M⁻¹ s⁻¹ |  | CCOC(=O)/C=C/[C@H](C[C@@H]1CCNC1=O)NC(=O)Nc1cc(C)cc(C)c1 [Compound 58, 4S-[3-(3,5-dimethyl-phenyl)-ureido]-5-(2-oxo-pyrrolidin-3S-yl)-pent-2-enoic acid ethyl ester] |  |  | 
